Structures can show the parent of a compound that is named as a salt. Where two headings read alike, the source gives them in different places. A value given as a limit tells only on which side of the number the result lay.

IC50 data for 29 compounds are collected here from patent publication US7803801B2, “Aminopyridine compounds having Syk inhibitory activity” (Japan Tobacco, Inc., priority 2005, dated 2010).

For test [1], the target named is GST-Syk Full Protein (human) (Homo sapiens, UniProt P43405). As to the kind of experiment: Syk kinase inhibition test (HTRF method). The class given is biochemical. The method in brief:
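Human GST-Syk full-length (6.4 nM) phosphorylated biotin-EDPDYEWPSA-NH2 (250 nM) with 100 μM ATP in HEPES pH 7.0/MgCl2 buffer, 2% DMSO, 30 min at room temperature. EDTA stop, then HTRF detection (streptavidin-XL665, Eu anti-phosphotyrosine) after 1 h; 665/620 ratio read.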
In general terms: Time-resolved FRET reads energy transfer from a long-lived donor to a nearby acceptor.

The subject of test [2] is cultured human mast cells. As to the kind of experiment: Degranulation inhibition test using cultured human mast cells (IgE cross-linking, β-Hexosaminidase release). The class given is cell-based. The conditions noted are these: Mast cell, cultured human mast cells, read-out: human degranulation ave. IC50. The method in brief:
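CD34+ cord-blood cells cultured ≥8 weeks with SCF/IL-6/IL-3; FcεRI primed 5 days with rhIL-4 (1 ng/mL) and hIgE (0.5 μg/mL). Compound (0.1% DMSO) preincubated 10 min at 37 °C, then anti-IgE (final 10 μg/mL) 30 min; released β-hexosaminidase read at 405 nm versus total lysate, IC50 (M).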

Setting [3] is: Tables 1-x, compounds A, read-out: sykHTRF ave IC50.
Where [4] appears, read: HTRF, 100 μM ATP, 30 min room temperature, average, read-out: sykHTRF ave IC50.
Where [5] appears, read: anti-hIgE stimulation, β-Hexosaminidase index, average.
Setting [6] is: Tables 2-x, thiophene compounds B, read-out: sykHTRK ave IC50.
Where [7] appears, read: Tables 2-x, thiophene compounds B.

As a reminder, the IC50 is the concentration needed to halve the response being measured. For `CN(Cc1ccc(C(=O)O)cc1)c1ncc(-c2cccc(Nc3cc(C4(C)OCCO4)ccn3)n2)s1` [Compound A-596, 4-{[N-methyl-N-(5-{6-[4-(2-methyl-[1,3]dioxolan-2-yl)pyridin-2-ylamino]pyridin-2-yl}thiazol-2-yl)amino]methyl}benzoic acid], the IC50 in test [1] (setting [3]) was below 100 nM; in test [2] (Tables 1-x, compounds A), 100 to 1000 nM.

In the case of `Cc1ccnc(Nc2cccc(-c3cnc(C(=O)NCCO)s3)n2)c1` [Compound A-29], the IC50 in test [1] (setting [4]) and in test [2] (setting [5]) was 100 to 1000 nM throughout.

In the case of `Cc1ccnc(Nc2cccc(-c3cc(C)c(C(=O)O)s3)n2)c1` [Compound B-37], the IC50 in test [1] (setting [6]) was 100 to 1000 nM; in test [2] (setting [7]), above 1000 nM.

Regarding `Cc1ccnc(Nc2cccc(-c3cnc(C4CCCC(C(=O)N5C[C@@H](O)[C@@H](O)C5)C4)s3)n2)c1` (stereo partly shown) [Compound A-273], the IC50 is 100 to 1000 nM in test [1] (setting [4]) and above 1000 nM in test [2] (setting [5]).

For `CC(=O)N[C@@H](C)c1nc(C(N)=O)c(-c2cccc(Nc3cc(C)ccn3)n2)s1` [Compound A-117], the IC50 in test [1] (setting [4]) and in test [2] (setting [5]) was above 1000 nM in each case.

On to `Cc1ccnc(Nc2cccc(-c3cnc(N4CC[C@@H](O)C4)s3)n2)c1` [Compound A-479, (R)-1-{5-[6-(4-methylpyridin-2-ylamino)pyridin-2-yl]thiazol-2-yl}pyrrolidin-3-ol], for which the IC50 in test [1] (setting [3]) was below 100 nM; in test [2] (Tables 1-x, compounds A), 100 to 1000 nM.

Turning to `OCc1ccnc(Nc2cccc(-c3cccs3)n2)c1` [Compound B-94], the IC50 in test [1] (setting [6]) and in test [2] (setting [7]) was 100 to 1000 nM in each case.

`Cc1ccnc(Nc2cccc(-c3ccc(C=O)s3)n2)c1` [Compound B-2, 5-[6-(4-methylpyridin-2-ylamino)pyridin-2-yl]thiophene-2-carboxaldehyde]: the IC50 in test [1] (setting [6]) is below 100 nM; in test [2] (setting [7]), above 1000 nM.

Take `Cc1ccnc(Nc2cccc(-c3ccc(C(=O)N4CCOCC4)s3)n2)c1` [Compound B-81]: the IC50 in test [1] (setting [6]) and in test [2] (setting [7]) was 100 to 1000 nM in each case.

In the case of `Cc1ccnc(Nc2cccc(-c3cnc(N4CCCC(COCC(=O)O)C4)s3)n2)c1` (stereo not shown) [Compound A-497, (1-{5-[6-(4-methylpyridin-2-ylamino)pyridin-2-yl]thiazol-2-yl}piperidin-3-ylmethoxy)acetic acid dihydrochloride], the IC50 in test [1] (setting [3]) is below 100 nM; in test [2] (Tables 1-x, compounds A), above 1000 nM.

As for `Cc1ccnc(Nc2cccc(-c3sc(N4CCOCC4)nc3C)n2)c1` [Compound A-425, N-[6-(4-methyl-2-morpholin-4-ylthiazol-5-yl)pyridin-2-yl]-N-(4-methylpyridin-2-yl)amine], the IC50 in test [1] (setting [4]) is below 100 nM; in test [2] (setting [5]), 100 to 1000 nM.

With `O=C(O)[C@H]1CC[C@H](c2ncc(-c3cccc(Nc4cc(Cl)ccn4)n3)s2)CC1` [Compound A-204, trans-4-{5-[6-(4-chloropyridin-2-ylamino)pyridin-2-yl]thiazol-2-yl}cyclohexanecarboxylic acid], the results for the IC50 in test [1] (setting [4]) and in test [2] (setting [5]) were below 100 nM and 100 to 1000 nM, respectively.

With `Cc1ccnc(Nc2cccc(-c3cnc(N4CCN(CC(=O)O)C(=O)C4)s3)n2)c1` [Compound A-464, (4-{5-[6-(4-methylpyridin-2-ylamino)pyridin-2-yl]thiazol-2-yl}-2-oxopiperazin-1-yl)acetic acid dihydrochloride], the IC50 is below 100 nM in test [1] (setting [3]) and above 1000 nM in test [2] (Tables 1-x, compounds A).

In the case of `Cc1ccnc(Nc2cccc(-c3cnc([C@@H]4CCCC(=O)N4C)s3)n2)c1` [Compound A-364], the IC50 in test [1] (setting [4]) and in test [2] (setting [5]) was 100 to 1000 nM throughout.

For the compound `Cc1ccnc(Nc2cccc(-c3cnc([C@H]4CC[C@H](C(=O)N5CCC(N)C5)CC4)s3)n2)c1` (stereo partly drawn) [Compound A-311, (3-aminopyrrolidin-1-yl)-(trans-4-{5-[6-(4-methylpyridin-2-ylamino)pyridin-2-yl]thiazol-2-yl}cyclohexyl)methanone trihydrochloride], the IC50 in test [1] (setting [4]) is below 100 nM; in test [2] (setting [5]), 100 to 1000 nM.

`Cc1ccnc(Nc2cccc(-c3cnc(CNS(C)(=O)=O)s3)n2)c1` [Compound A-200, N-{5-[6-(4-methylpyridin-2-ylamino)pyridin-2-yl]thiazol-2-ylmethyl}methanesulfonamide]: the figures for the IC50 in test [1] (setting [4]) and in test [2] (setting [5]) were below 100 nM and 100 to 1000 nM, respectively.

Consider `Cc1ccnc(Nc2cccc(-c3cnc(CNC4CCN(C(=O)OC(C)(C)C)CC4)s3)n2)c1` [Compound A-386], for which the IC50 lay within 100 to 1000 nM in test [1] (setting [3]) and 100 to 1000 nM in test [2] (Tables 1-x, compounds A).

With `Cc1ccnc(Nc2cccc(-c3cccs3)n2)c1` [Compound B-27], the figures for the IC50 in test [1] (setting [6]) and in test [2] (setting [7]) were 100 to 1000 nM and above 1000 nM, respectively.

Take `CC(=NO)c1cc(C)c(-c2cccc(Nc3cc(C)ccn3)n2)s1` [Compound B-7]: the IC50 is 100 to 1000 nM in test [1] (setting [6]) and above 1000 nM in test [2] (setting [7]).

On to `CNc1ncc(-c2cccc(Nc3cc(C)ccn3)n2)s1` [Compound A-426, N-methyl-N-{5-[6-(4-methylpyridin-2-ylamino)pyridin-2-yl]thiazol-2-yl}amine], for which the values for the IC50 in test [1] (setting [4]) and in test [2] (setting [5]) were below 100 nM and 100 to 1000 nM, respectively.

Regarding `Cc1ccnc(Nc2cccc(-c3cnc(N(CC(=O)N(C)C)Cc4ccc(C(=O)O)cc4)s3)n2)c1` [Compound A-597, 4-[(N-dimethylcarbamoylmethyl-N-{5-[6-(4-methylpyridin-2-ylamino)pyridin-2-yl]thiazol-2-yl}amino)methyl]benzoic acid dihydrochloride], the IC50 in test [1] (setting [3]) is below 100 nM; in test [2] (Tables 1-x, compounds A), above 1000 nM.

Turning to `CC(=O)N[C@@H](C)c1ncc(-c2cccc(Nc3cc4ccccc4cn3)n2)s1` [Compound A-91, N—((S)-1-{5-[6-(isoquinolin-3-ylamino)pyridin-2-yl]thiazol-2-yl}ethyl)acetamide], the IC50 in test [1] (setting [4]) is below 100 nM; in test [2] (setting [5]) it was 100 to 1000 nM.

With `Cc1ccnc(Nc2cccc(-c3cnc([C@H]4CC[C@H](C(=O)NCCN(C)C)CC4)s3)n2)c1` [Compound A-309, N-(2-dimethylaminoethyl)-trans-4-{5-[6-(4-methylpyridin-2-ylamino)pyridin-2-yl]thiazol-2-yl}cyclohexanecarboxamide], the IC50 in test [1] (setting [4]) was below 100 nM; in test [2] (setting [5]) it was 100 to 1000 nM.

Turning to `Cc1ccnc(Nc2cccc(-c3cnc(N4CCC[C@@H](CO)C4)s3)n2)c1` [Compound A-532, ((R)-1-{5-[6-(4-methylpyridin-2-ylamino)pyridin-2-yl]thiazol-2-yl}piperidin-3-yl)methanol], the IC50 in test [1] (setting [3]) is below 100 nM; in test [2] (Tables 1-x, compounds A) it was below 100 nM.

As to `Cc1ccnc(Nc2cccc(-c3cnc(Cc4cccnc4)s3)n2)c1` [Compound A-248, N-(4-methylpyridin-2-yl)-N-[6-(2-pyridin-3-ylmethylthiazol-5-yl)pyridin-2-yl]amine], the IC50 in test [1] (setting [4]) was below 100 nM; in test [2] (setting [5]), 100 to 1000 nM.

On to `Cc1ccnc(Nc2cccc(-c3cnc([C@H](C)NC(=O)c4ccccc4)s3)n2)c1` [Compound A-348], for which the IC50 was 100 to 1000 nM in test [1] (setting [4]) and above 1000 nM in test [2] (setting [5]).

Turning to `CC(=O)O/N=C(\C)c1ccc(-c2cccc(Nc3cc(C)ccn3)n2)s1` [Compound B-86], the IC50 in test [1] (setting [6]) and in test [2] (setting [7]) was 100 to 1000 nM throughout.

On to `Cc1ccnc(Nc2cccc(-c3cnc(CCC4CCN(C(=O)c5ccncc5)CC4)s3)n2)c1` [Compound A-301], for which the IC50 in test [1] (setting [4]) and in test [2] (setting [5]) was 100 to 1000 nM each time.

As to `Cc1ccnc(Nc2cccc(-c3cnc([C@H](C)NC(=O)[C@H](C)O)s3)n2)c1` [Compound A-32], the IC50 in test [1] (setting [4]) and in test [2] (setting [5]) was 100 to 1000 nM each time.
